From US20220313708A1, “COMBINATION PRODUCT CONTAINING LIMONOID COMPOUND AND SGLT-2 INHIBITOR” (ZHEJIANG YANGSHENGTANG INSTITUTE OF NATURAL MEDICATION CO., …, priority 2019, published 2022)

Tested on: mouse type II diabetes model with pancreatic islet damage and obesity
Test: Blood glucose in mouse type II diabetes model with pancreatic islet damage and obesity (STZ + high-fat diet, Example 5, tofogliflozin)
Type: in vivo
Conditions: STZ + high-fat diet ICR mice; single agent 0.5 g/kg per day by gavage, two weeks; 1 h after last administration; mean ± SD
Excerpt: In this example, a mouse model of type II diabetes with pancreatic islet damage and obesity was established by multiple modeling ICR mice with a small dose of streptozotocin (STZ), following with continuous high-fat diets (referring to literature: Zhang Jiyuan et al, Study on the effect of three plant extracts on improving glucose and lipid metabolism in type 2 diabetic mice, Food and Machinery, 2016, 32 (12): 142-147). […]
Experimental grouping: 15 male mice were randomly selected as the normal control group, and the remaining mice were subjected to a high-fat diet (high-fat diet formula: cholesterol 1%, egg yolk powder 10%, lard oil 10%, and basic feed 79%, for establishing an obesity mouse model) for consecutive 4 weeks and intraperitoneal injection of STZ at a dose of 35 mg/kg for three consecutive days. After one week, the mice were subject to 24 hours of fasting and water deprivation, their fasting blood glucose was measured, and the mice with a blood glucose level of 15 to 25 mmol/L were selected and undifferentiatedly grouped and used in the experiment, continuously subjected to the high-fat diet, 15 mice in each group, and subjected to blood sampling and detection of indicators after 2 weeks of administration. […]

CCc1ccc(Cc2ccc3c(c2)[C@]2(OC3)O[C@H](CO)[C@@H](O)[C@H](O)[C@H]2O)cc1 [Tofogliflozin, tofogliflozin]
Blood glucose value: 10.1 ± 2.7 mmol/L
